Measurements reported in PubChem BioAssay (NCI).
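Test compounds were applied to cells in 96-well plates for 48 hours at 5 doses. At the GI50, growth is halved. At the TGI there is no net growth.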

Tests used:
Test in all cases: inhibition of tumour cell growth, NCI panel, 48 h
SNB-75 CNS = tested on: SNB-75 CNS
UO-31 renal = tested on: UO-31 renal
A498 renal = tested on: A498 renal
NCI-H226 lung = tested on: NCI-H226 lung
UACC-257 melanoma = tested on: UACC-257 melanoma
K-562 leukemia = tested on: K-562 leukemia
OVCAR-4 ovarian = tested on: OVCAR-4 ovarian
CAKI-1 renal = tested on: CAKI-1 renal
SK-MEL-5 melanoma = tested on: SK-MEL-5 melanoma
RXF 393 renal = tested on: RXF 393 renal
PC-3 prostate = tested on: PC-3 prostate
SF-268 CNS = tested on: SF-268 CNS
DU-145 prostate = tested on: DU-145 prostate
MDA-MB-468 breast = tested on: MDA-MB-468 breast
OVCAR-5 ovarian = tested on: OVCAR-5 ovarian
A549 NSCLC = tested on: A549 NSCLC
OVCAR-3 ovarian = tested on: OVCAR-3 ovarian
COLO 205 colon = tested on: COLO 205 colon
MALME-3M melanoma = tested on: MALME-3M melanoma
M14 melanoma = tested on: M14 melanoma
HOP-92 NSCLC = tested on: HOP-92 NSCLC
MDA-MB-435 = tested on: MDA-MB-435
SF-295 CNS = tested on: SF-295 CNS
HOP-62 NSCLC = tested on: HOP-62 NSCLC
T-47D breast = tested on: T-47D breast
HT29 colon = tested on: HT29 colon
CCRF-CEM leukemia = tested on: CCRF-CEM leukemia
SW-620 colon = tested on: SW-620 colon
SK-OV-3 ovarian = tested on: SK-OV-3 ovarian
786-0 renal = tested on: 786-0 renal
NCI/ADR-RES ovarian = tested on: NCI/ADR-RES ovarian
SN12C renal = tested on: SN12C renal
SK-MEL-2 melanoma = tested on: SK-MEL-2 melanoma
SR leukemia = tested on: SR leukemia
KM12 colon = tested on: KM12 colon
NCI-H522 lung = tested on: NCI-H522 lung
HCC-2998 colon = tested on: HCC-2998 colon
HL-60(TB) leukemia = tested on: HL-60(TB) leukemia
OVCAR-8 ovarian = tested on: OVCAR-8 ovarian
MOLT-4 leukemia = tested on: MOLT-4 leukemia
MCF7 breast = tested on: MCF7 breast
SF-539 CNS = tested on: SF-539 CNS
RPMI-8226 leukemia = tested on: RPMI-8226 leukemia
UACC-62 melanoma = tested on: UACC-62 melanoma
MDA-MB-231 breast = tested on: MDA-MB-231 breast
EKVX NSCLC = tested on: EKVX NSCLC
ACHN renal = tested on: ACHN renal
NCI-H23 lung = tested on: NCI-H23 lung
SNB-19 CNS = tested on: SNB-19 CNS
HS 578T breast = tested on: HS 578T breast
NCI-H460 lung = tested on: NCI-H460 lung
TK-10 renal = tested on: TK-10 renal
BT-549 breast = tested on: BT-549 breast
LOX IMVI melanoma = tested on: LOX IMVI melanoma
U251 CNS = tested on: U251 CNS
SK-MEL-28 melanoma = tested on: SK-MEL-28 melanoma
IGROV1 ovarian = tested on: IGROV1 ovarian
HCT-15 colon = tested on: HCT-15 colon

## CC(=O)Oc1ccccc1C(=O)Oc1ccc(C(=O)/C=C/c2ccncc2)cc1
SNB-75 CNS
  GI50: 15.8 µM
  TGI: > 100 µM
UO-31 renal
  GI50: 10.3 µM
  TGI: 24 µM
A498 renal
  GI50: 20.5 µM
  TGI: 71.4 µM
NCI-H226 lung
  GI50: 26.4 µM
  TGI: > 100 µM
UACC-257 melanoma
  GI50: 16.9 µM
  TGI: 63.4 µM
K-562 leukemia
  GI50: 2.29 µM
  TGI: > 100 µM
OVCAR-4 ovarian
  GI50: 29.7 µM
  TGI: > 100 µM
CAKI-1 renal
  GI50: 19.3 µM
  TGI: > 100 µM
SK-MEL-5 melanoma
  GI50: 12.4 µM
  TGI: 29.5 µM
RXF 393 renal
  GI50: 5.25 µM
  TGI: 20.8 µM
PC-3 prostate
  GI50: 10.4 µM
  TGI: > 100 µM
SF-268 CNS
  GI50: 25 µM
  TGI: > 100 µM
DU-145 prostate
  GI50: 10.5 µM
  TGI: 44.1 µM
MDA-MB-468 breast
  GI50: 2.36 µM
  TGI: 8.34 µM
OVCAR-5 ovarian
  GI50: 24.9 µM
  TGI: 99.1 µM
A549 NSCLC
  GI50: 15.1 µM
  TGI: > 100 µM
OVCAR-3 ovarian
  GI50: 5.3 µM
  TGI: 26 µM
COLO 205 colon
  GI50: 12.7 µM
  TGI: 40.5 µM
MALME-3M melanoma
  GI50: 16.5 µM
  TGI: 51.4 µM
M14 melanoma
  GI50: 14.5 µM
  TGI: > 100 µM
HOP-92 NSCLC
  GI50: 21.1 µM
  TGI: > 100 µM
MDA-MB-435
  GI50: 4.45 µM
  TGI: 44.3 µM
SF-295 CNS
  GI50: 8.56 µM
  TGI: 58.1 µM
HOP-62 NSCLC
  GI50: 27.5 µM
  TGI: > 100 µM
T-47D breast
  GI50: 23.8 µM
  TGI: 97.6 µM
HT29 colon
  GI50: 3.6 µM
  TGI: 20.1 µM
CCRF-CEM leukemia
  GI50: 2.38 µM
  TGI: > 100 µM
SW-620 colon
  GI50: 3.04 µM
  TGI: 18.9 µM
SK-OV-3 ovarian
  GI50: 30.9 µM
  TGI: > 100 µM
786-0 renal
  GI50: 16.1 µM
  TGI: > 100 µM
NCI/ADR-RES ovarian
  GI50: 20.7 µM
  TGI: > 100 µM
SN12C renal
  GI50: 10.1 µM
  TGI: 45.5 µM
SK-MEL-2 melanoma
  GI50: 32.5 µM
  TGI: > 100 µM
SR leukemia
  GI50: 0.407 µM
  TGI: > 100 µM
KM12 colon
  GI50: 3.57 µM
  TGI: 22.2 µM
NCI-H522 lung
  GI50: 4.85 µM
  TGI: 21.5 µM
HCC-2998 colon
  GI50: 4.83 µM
  TGI: 16.4 µM
HL-60(TB) leukemia
  GI50: 4.93 µM
  TGI: 34.1 µM
OVCAR-8 ovarian
  GI50: 24.9 µM
  TGI: > 100 µM
MOLT-4 leukemia
  GI50: 15.9 µM
  TGI: 85.9 µM
MCF7 breast
  GI50: 1.1 µM
  TGI: 9.24 µM
SF-539 CNS
  GI50: 4.29 µM
  TGI: 17.4 µM
RPMI-8226 leukemia
  GI50: 1.58 µM
  TGI: 7.19 µM
UACC-62 melanoma
  GI50: 16.6 µM
  TGI: 42.3 µM
MDA-MB-231 breast
  GI50: 8.6 µM
  TGI: 36.2 µM
EKVX NSCLC
  GI50: 14.7 µM
  TGI: 45.7 µM
ACHN renal
  GI50: 15.6 µM
  TGI: 44.9 µM
NCI-H23 lung
  GI50: 10.8 µM
  TGI: 30.8 µM
SNB-19 CNS
  GI50: 15.3 µM
  TGI: 47.3 µM
HS 578T breast
  GI50: 22.5 µM
  TGI: > 100 µM
NCI-H460 lung
  GI50: 11.2 µM
  TGI: 48.9 µM
TK-10 renal
  GI50: 37.4 µM
  TGI: > 100 µM
BT-549 breast
  GI50: 17 µM
  TGI: 38.7 µM
LOX IMVI melanoma
  GI50: 1.96 µM
  TGI: 5.87 µM
U251 CNS
  GI50: 3.77 µM
  TGI: 70.8 µM
SK-MEL-28 melanoma
  GI50: 19.3 µM
  TGI: 62.1 µM
IGROV1 ovarian
  GI50: 7.4 µM
  TGI: 54 µM
HCT-15 colon
  GI50: 3.55 µM
  TGI: 18.8 µM
